Measured values published in patent US20240409536A1, “COMPOUNDS AND METHODS FOR MODULATING SPLICING” (REMIX THERAPEUTICS INC., priority 2021, published 2024).
Counter-ions that a name gives are not always drawn.

Experiments:
[1] = system: K562 cells; assay: Cell Titer Glo 2.0 cell viability assay in K562 cells; conditions: 72 hours
[2] = system: HTT mRNA; assay: Splicing RT-qPCR assay, HTT canonical (CJ) and alternative (AJ) junction mRNA; format: cell-based; conditions: Homo sapiens, A673 or K562 cells, 24 hours; for IC50: decrease in canonical junction mRNA; for AC50: increase in alternative junction mRNA
Method in brief: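 RT-qPCR read-out: CJ and AJ junction isoforms quantified from cell lysates, normalized to housekeeping GAPDH/GUSB (K562) or PPIA (A673). Cells had 24 h compound exposure, 11-point 3-fold series from 10 uM final, ≤0.25% DMSO.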

[3] = system: SMN2 mRNA; assay: Gene panel canonical junction qPCR assay, SMN2 CJ mRNA decrease; format: cell-based, human; conditions: Homo sapiens, canonical junction qPCR, read-out: SMN2 IC50 (decrease in CJ mRNA levels)
Method in brief: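 A673 or K562 cells treated with compound; canonical exon-exon junction mRNA quantified by cDNA synthesis and RT-qPCR with junction-spanning primer/probe, normalized to GAPDH, GUSB or PPIA and DMSO (2^(−ΔΔCt)). Percent response from set ΔCt assay windows fitted to 4-parameter logistic; IC50 for CJ decrease.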

Row | IC50 [2] [nM] | IC50 [3] [nM] | Compound | Viability [1] | AC50 [2] [nM]
1 | 100 to 1000 | < 100 | COc1cnc2c(N3C[C@@H](C)N[C@@H](C)C3)ccc(C(=O)Nc3cc(F)c4nc(C)cn4c3)c2n1 [Compound 205, 8-[(3R,5S)-3,5-dimethylpiperazin-1-yl]-N-{8-fluoro-2-methylimidazo[1,2-a]pyridin-6-yl}-3-methoxyquinoxaline-5-carboxamide; trifluoroacetic acid] | B (B represents 100-1000 nM) | 100 to 1000
2 | > 10000 | 100 to 1000 | Cc1cn2cc(NC(=O)c3ccc(N4CCN(CCF)C5(CC5)C4)c4nccnc34)cc(F)c2n1 [Compound 370] | D (D represents greater than 10 μM in K562 cells) | > 10000
3 | 1000 to 10000 | < 100 | Cc1cn2cc(NC(=O)c3ccc(N4CCNCC4)c4ccnnc34)cc(C)c2n1 [Compound 125] | B (B represents 100-1000 nM) | 1000 to 10000
4 | 1000 to 10000 | < 100 | CCC1CN(c2ccc(C(=O)Nc3cc(F)c4nc(C)cn4c3)c3nnccc23)CCN1 (stereo not drawn) [Compound 130] | B (B represents 100-1000 nM) | 1000 to 10000
5 | 1000 to 10000 | < 100 | Cc1cn2cc(NC(=O)c3ccc(N4CCN(C)CC4)c4ccnnc34)cc(F)c2n1 [Compound 127] | C (C represents 1000-9999 nM) | 1000 to 10000
6 | 1000 to 10000 | < 100 | Cc1cn2cc(NC(=O)c3ccc(N4CC5(CNC5)C4)c4ccnnc34)cc(F)c2n1 [Compound 131] | B (B represents 100-1000 nM) | 1000 to 10000
7 | 100 to 1000 | < 100 | COc1ncc2c(N3C[C@@H](C)N[C@@H](C)C3)ccc(C(=O)Nc3cn4cc(C)nc4c(OC)n3)c2n1 [Compound 378] | A (A represents <100 nM) | 100 to 1000
8 | > 10000 | 100 to 1000 | Cc1cn2cc(NC(=O)c3ccc(N4CCNC5(COC5)C4)c4nccnc34)cc(F)c2n1 [Compound 372] | C (C represents 1000-9999 nM) | > 10000
9 | > 10000 | < 100 | COCCOc1ccc2c(N3CCNCC3)ccc(C(=O)Nc3cc(F)c4nc(C)cn4c3)c2n1 [Compound 173, N-{8-fluoro-2-methylimidazo[1,2-a]pyridin-6-yl}-2-(2-methoxyethoxy)-5-(piperazin-1-yl)quinoline-8-carboxamide] | B (B represents 100-1000 nM) | > 10000
10 | > 10000 | 100 to 1000 | CCc1cc(NC(=O)c2ccc(N3CCNCC3)c3ccnnc23)nn2cc(C)nc12 [Compound 168, N-{8-ethyl-2-methylimidazo[1,2-b]pyridazin-6-yl}-5-(piperazin-1-yl)cinnoline-8-carboxamide trifluoroacetic acid salt] | C (C represents 1000-9999 nM) | > 10000
11 | 100 to 1000 | < 100 | Cc1cn2cc(NC(=O)c3ccc(N4CCNC(C)C4)c4ccnnc34)cc(F)c2n1 (stereo not drawn) [Compound 128] | B (B represents 100-1000 nM) | 100 to 1000
12 | 1000 to 10000 | < 100 | Cc1ccc2c(N3CCNCC3)ccc(C(=O)Nc3cc(F)c4nc(C)cn4c3)c2n1 [Compound 162, N-{8-fluoro-2-methylimidazo[1,2-a]pyridin-6-yl}-2-methyl-5-(piperazin-1-yl)quinoline-8-carboxam-ide, trifluoroacetic acid] | B (B represents 100-1000 nM) | 1000 to 10000
13 | 1000 to 10000 | < 100 | CCN1CCC(c2ccc(C(=O)Nc3cc(F)c4nc(C)cn4c3)c3nnccc23)CC1 [Compound 141] | C (C represents 1000-9999 nM) | 1000 to 10000
14 | 1000 to 10000 | < 100 | Cc1cn2cc(NC(=O)c3ccc(N4CCC(N5CCCC5)C4)c4ccnnc34)cc(F)c2n1 (stereo not drawn) [Compound 133] | C (C represents 1000-9999 nM) | 1000 to 10000
15 | 1000 to 10000 | < 100 | Cc1cn2cc(NC(=O)c3ccc(N4CCNC5(CCOCC5)C4)c4nccnc34)cc(F)c2n1 [Compound 374] | B (B represents 100-1000 nM) | 1000 to 10000
16 | 1000 to 10000 | < 100 | Cc1cn2cc(NC(=O)c3ccc(N4CCN(C)[C@@H](C)C4)c4ccnnc34)cc(F)c2n1 [Compound 150] | B (B represents 100-1000 nM) | 1000 to 10000
17 | 1000 to 10000 | < 100 | Cc1cn2cc(NC(=O)c3ccc(N4CCN5CCC[C@H]5C4)c4ccnnc34)cc(F)c2n1 [Compound 154] | B (B represents 100-1000 nM) | 1000 to 10000
18 | 1000 to 10000 | < 100 | CNC1CCN(c2ccc(C(=O)Nc3cc(F)c4nc(C)cn4c3)c3nc(C)ccc23)C1 (stereo not drawn) [Compound 196, N-{8-fluoro-2-methylimidazo[1,2-a]pyridin-6-yl}-2-methyl-5-[3-(methylamino)pyrrolidin-1-yl]quinoline-8-carboxamide 2,2,2-trifluoroacetate] | A (A represents <100 nM) | 1000 to 10000
19 | 1000 to 10000 | < 100 | Cc1cn2cc(NC(=O)c3ccc(N4CCNC(C)(C)C4)c4nccnc34)cc(F)c2n1 [Compound 220, 8-(3,3-dimethylpiperazin-1-yl)-N-{8-fluoro-2-methylimidazo[1,2-a]pyridin-6-yl}quinoxaline-5-carboxamide] | A (A represents <100 nM) | 1000 to 10000
20 | 100 to 1000 | < 100 | Cc1cn2cc(NC(=O)c3ccc(N4CCC(N(C)C)CC4)c4ccnnc34)cc(F)c2n1 [Compound 137] | A (A represents <100 nM) | 100 to 1000
21 | 1000 to 10000 | < 100 | Cc1cn2cc(NC(=O)c3ccc(N4CCN[C@@H](C)C4)c4nccnc34)cc(F)c2n1 [Compound 187, N-{8-fluoro-2-methylimidazo[1,2-a]pyridin-6-yl}-8-(3-methylpiperazin-1-yl) quinoxaline-5-carboxamide] | B (B represents 100-1000 nM) | 1000 to 10000
22 | 1000 to 10000 | < 100 | CN[C@H]1CCN(c2ccc(C(=O)Nc3cc(F)c4nc(C)cn4c3)c3nccnc23)C1 (single isomer, unassigned) [Compound 194, N-{8-fluoro-2-methylimidazo[1,2-a]pyridin-6-yl}-8-[3-(methylamino)pyrrolidin-1-yl]quinoxaline-5-carboxamide] | A (A represents <100 nM) | 1000 to 10000
23 | > 10000 | 100 to 1000 | Cc1cn2cc(NC(=O)c3ccc(N4C[C@H]5C[C@@H]4C5N(C)C)c4ccnnc34)cc(F)c2n1 (stereo partly drawn) [Compound 155] | B (B represents 100-1000 nM) | > 10000
24 | > 10000 | < 100 | Cc1cn2cc(NC(=O)c3ccc(N4CCNCC4)c4ccnnc34)nc(C)c2n1 [Compound 164, N-{2,8-dimethylimidazo[1,2-a]pyrazin-6-yl}-5-(piperazin-1-yl)cinnoline-8-carboxamide 2,2,2-trifluoroacetate] | B (B represents 100-1000 nM) | > 10000
25 | 100 to 1000 | 100 to 1000 | Cc1cn2cc(NC(=O)c3ccc(N4CCNCC4)c4ccnnc34)[nH]c(=O)c2n1 [Compound 177, N-{2-methyl-8-oxo-7H-imidazo[1,2-a]pyrazin-6-yl}-5-(piperazin-1-yl)cinnoline-8-carboxamide trifluoroacetic acid salt] | B (B represents 100-1000 nM) | 100 to 1000
26 | > 10000 | < 100 | Cc1cn2cc(NC(=O)c3ccc(N4C[C@@H](C)N[C@@H](C)C4)c4ccnnc34)nc(C)c2n1 [Compound 172, N-{2,8-dimethylimidazo[1,2-a]pyrazin-6-yl}-5-[(3R,5S)-3,5-dimethylpiperazin-1-yl]cinnoline-8-carboxamide] | B (B represents 100-1000 nM) | > 10000
27 | > 10000 | < 100 | Cc1nc(NC(=O)c2ccc(N3CCNCC3)c3ccnnc23)cc2cn(C)nc12 [Compound 178, N-{2,7-dimethylpyrazolo[3,4-c]pyridin-5-yl}-5-(piperazin-1-yl)cinnoline-8-carboxamide] | C (C represents 1000-9999 nM) | > 10000
28 | > 10000 | < 100 | CC(=O)c1cc(NC(=O)c2ccc(N3CCNCC3)c3ccnnc23)cn2cc(C)nc12 [Compound 163, N-{8-acetyl-2-methylimidazo[1,2-a]pyridin-6-yl}-5-(piperazin-1-yl)cinnoline-8-carboxamide] | C (C represents 1000-9999 nM) | > 10000
29 | > 10000 | < 100 | Cc1cn2cc(NC(=O)c3ccc(N4CCNC5(CC5)C4)c4nccnc34)cc(F)c2n1 [Compound 218, 8-{4,7-diazaspiro[2.5]octan-7-yl}-N-{8-fluoro-2-methylimidazo[1,2-a]pyridin-6-yl}quinoxaline-5-carboxamide] | B (B represents 100-1000 nM) | 1000 to 10000
30 | 1000 to 10000 | 1000 to 10000 | Cc1cn2nc(NC(=O)c3ccc(N4CCNCC4)c4ccnnc34)cc2c(C)n1 [Compound 123] | C (C represents 1000-9999 nM) | 1000 to 10000
